Assays:
Type in all cases: in vivo, human
urinary serotonin = test: Urinary serotonin monoamine level assay (ELISA, per gram of creatinine) under amino acid precursor dosing
Protocol: (§1) For monoamine testing of monoamines of The System, urine is collected approximately 5 to 6 hours prior onset of the sleep cycle and just prior to any amino acid dosing the subject may or may not be taking close to that time period. Once the urine sample is obtained, laboratory assay of the monoamine of The System are performed as well as a urinary creatinine assay and the results are reported in terms of micrograms of monoamine per gram of creatinine.
(§2) Referring now to the data summarized herein, the data is from a database of subjects who have been diagnosed by a licensed healthcare provider as having one or more monoamine dysfunction(s) associated with the serotonin and/or catecholamine systems. The database fields include: • 1. The monoamine diagnosis made by a licensed healthcare provider; • 2. Amino acid dosing of amino acid precursors of the serotonin and dopamine monoamines; • 3. Laboratory assay of urinary serotonin and catecholamine monoamine levels; • 4. The subject's sex; • 5. The subject's age and date of birth; • 6. The subject's weight; • 7. The subject's height; • 8. Any allergies the subject might have; • 9. Any medications (prescription and/or non-prescription) with dosing that the subject might be taking; • 10. Type of license held by the caregiver; and • 11. The subject's state and zip code of residence.
(§3) Also referring to the summarized date, the monoamine analysis performed was subjected to the following criteria: • 1. Urinary monoamine reference ranges reported by the laboratory were determined after precision and accuracy studies had validated initial calibration results; • 2. The reported reference ranges of the laboratory performing the assays were within ±2 standard deviations of the mean for the general population used in calibration; • 3. The reported reference ranges are for adults (18 years of age and older); • 4. Urinary monoamine samples were collected at least 3 to 4 hours after a subject took a dose of amino acid precursors; • 5. Urinary monoamine samples were collected 5 to 6 hours before the onset of the sleep cycle (bed time); • 6. […]

urinary dopamine = test: Urinary dopamine monoamine level assay (RIA, per gram of creatinine) under amino acid precursor dosing
Protocol: as §1, §2, §3

[1] = test system: urinary serotonin or dopamine; test: Phase (1, 2, 3) of urinary monoamine response to amino acid precursor dosing, from serial urinary assays; conditions: for amino acid dosing change required to move between phase 1 and phase 3, much larger changes / amino acid dosing change that moved subjects between phase 1 and phase 3, very small changes: 5-HTP with L-Tyrosine or L-Dopa; for amino acid dosing change required to move between phase 1 and phase 3, much larger changes: other subjects; for amino acid dosing change that moved subjects between phase 1 and phase 3, very small changes: some observed subjects
Excerpt: However, according to certain embodiments, the predictability of determining an individual or group response of urinary serotonin and/or dopamine monoamine levels between two assays is possible when it is properly determined that the subject is in one of three phases of urinary monoamine response to amino acid precursor administration. As identified above, there are at least three phases (referred to as phase 1, phase 2, and phase 3) of urinary monoamine response to amino acid precursor administration. In phase 1, the urinary monoamine level drops as the total amino acid precursor dosing of serotonin and dopamine is increased. In phase 1, the urinary monoamine level increases as the total amino acid precursor dosing of serotonin and dopamine is decreased. In phase 2, the urinary monoamine level remains below the therapeutic range and relatively constant as the total amount of monoamine amino acid precursor dosing is increased or decreased. In order for urinary monoamines to be in phase 2, subtherapeutic urinary monoamine levels must exist. In phase 3, the urinary monoamine level increases as the total amount of amino acid precursor dosing is increased. In phase 3, the urinary monoamine level decreases as the total amount of amino acid precursor dosing is decreased.
In certain embodiments, the phase of the urinary monoamines in response to amino acid therapy can properly be determined by obtaining two laboratory assays on two separate days with the subject taking a different amino acid dosing of serotonin and catecholamine precursors for each test. In general, at least 7 days must elapse between amino acid dosing changes and laboratory assay, but shorter time periods may be indicated at the decision of the individual obtaining the test. The laboratory assays should also be performed on samples that are collected at least 3 to 5 days after the last change in amino acid precursor dosing or start in amino acid precursor dosing of the serotonin and dopamine monoamines. If during the first assay the subject was taking supplemental amino acid precursors of serotonin and dopamine monoamines, then it is preferable that the second assay is performed after the dosing of the supplemental amino acid precursors has changed. The change in supplemental amino acid precursor may be for the serotonin monoamine and/or the dopamine monoamine. If both of the supplemental amino acid precursors of the serotonin and dopamine monoamines are changed, it is preferable that the dosing of both supplemental amino acid precursors is increased or the dosing of both supplemental amino acid precursors is decreased. The subject also should have not missed any dosing of amino acid precursors in the 3 to 5 day period before the sample is collected.
1. Phase 1: • a. Where an increase in amino acid precursor dosing of either the serotonin amino acid precursor and/or the dopamine amino acid precursor causes a decrease in the second assay urinary serotonin or dopamine monoamine levels. • b. Where a decrease in amino acid dosing of either the serotonin amino acid precursor and/or the dopamine amino acid precursor causes an increase in the second assay urinary serotonin or dopamine monoamine levels.
2. Phase 2: • a. Where urinary serotonin and/or dopamine monoamine levels are less than the therapeutic range.
3. Phase 3: • a. Where an increase in amino acid precursor dosing of either the serotonin amino acid precursor and/or the dopamine amino acid precursor causes an increase in the second assay urinary serotonin or dopamine monoamine levels. • b. Where a decrease in the amino acid precursor dosing of either the serotonin amino acid precursor and/or the dopamine amino acid precursor causes a decrease in the second assay urinary serotonin or dopamine monoamine levels.

## N[C@@H](Cc1ccc(O)cc1)C(=O)O [L-Tyrosine]
Urinary serotonin; Example 1, one subject, increase in tyrosine
  urinary serotonin levels on the second laboratory assay: marked increase
Urinary dopamine; Example 1, one subject, increase in tyrosine, dopamine subtherapeutic
  change in urinary dopamine levels: without much change
Urinary dopamine; phase 3, tyrosine as dopamine precursor
  highest urinary dopamine established in phase 3 by administration of tyrosine: ≤ 475 micrograms of dopamine per gram of creatinine
[1]
  amino acid dosing change required to move between phase 1 and phase 3, much larger changes: 5,000 mg
  amino acid dosing change that moved subjects between phase 1 and phase 3, very small changes: 375 mg

## N[C@@H](Cc1c[nH]c2ccc(O)cc12)C(=O)O [5-HTP, 5-hydroxytryptophan]
Urinary dopamine; administration of 5-HTP alone
  excretion of dopamine in phase 3 by the kidneys: marked increase
[1]
  amino acid dosing change required to move between phase 1 and phase 3, much larger changes: 900 mg
  amino acid dosing change that moved subjects between phase 1 and phase 3, very small changes: 37.5 mg
[1]; Example 4, final assay, tyrosine increased
  5-HTP dosing giving phase 3 therapeutic urinary serotonin level: 150 mg per day
[1]; Example 6, between test 1 and test 2
  change of 5-HTP dosing that moved urinary serotonin levels from phase 3 to phase 1: 150 mg per day
[1]; dose-response curve of one embodiment, urinary serotonin, balanced amino acids
  daily dosing at which the phase 2/phase 3 inflection point occurs: approximately 800 milligrams per day
[1]; subjects who experience the inflection point at low dose
  daily dosing at the phase 2/phase 3 inflection point, low-dose subjects: 50 milligrams per day
[1]; subjects without inflection point until this dose per day
  daily dosing at the phase 2/phase 3 inflection point, high-dose subjects: 1,500 milligrams

## N[C@@H](Cc1ccc(O)c(O)c1)C(=O)O [L-dopa, 1-3,4-dihydroxyphenylalanine, reference compound]
Urinary serotonin; Example 2, one subject, increase in L-dopa between first and third assay
  urinary serotonin level: increased
Urinary serotonin; addition of unopposed L-dopa
  urinary excretion of serotonin in phase 3: increases markedly
[1]
  amino acid dosing change required to move between phase 1 and phase 3, much larger changes: 900 mg
  amino acid dosing change that moved subjects between phase 1 and phase 3, very small changes: 60 mg
